Experimental data: patent US10183941B2, “Pyrimidine or pyridopyridone compound and application thereof” (GUANGZHOU BEBETTER MEDICINE TECHNOLOGY CO., LTD., priority 2015, dated 2019)
Read-outs that look alike come from different tables or passages of the source.

Columns and labels:
[1] = system: MDA-MB-231 breast cancer cells; assay: Cell cycle inhibition experiment (PI staining, flow cytometry); assay type: cell-based; conditions: Homo sapiens, MDA-MB-231 cells, 24 h
Description: The cell cycle and apoptosis assay kit (Beyotime, C1052) used in this experiment is an assay kit for analyzing the cell cycle and apoptosis using the classic method of Propidium staining (PI staining). Propidium (PI) is a double-stranded DNA fluorescent dye. The combination of propidium and double-stranded DNA can produce fluorescence, and fluorescence intensity is proportional to the amount of double-stranded DNA. After DNA in cells is stained with propidium, the DNA content of the cells can be measured by flow cytometry, and then the cell cycle and apoptosis can be analyzed according to the distribution of DNA content.
MDA-MB-231 cells were seeded into a 6-well plate at 3×10^5 per well and cultured for 24 hours.
In tumor cell cycle, the binding of CDK4 and CDK6 to cyclin D promotes G1 phase into S phase. CDK4/6 inhibitor selectively arrests the G1 phase of tumor cells into S phase. The detection results of the cell cycle of MDA-MB-231 breast cancer cells by flow cytometry indicate that the CDK4/6 inhibitor compounds provided by the present disclosure stop the growth of G1 phase cells and reduce S phase cells in a concentration-dependent manner, as shown in the following table.

[2] = system: phosphorylation of Rb at Ser780 in MDA-MB-231 breast cancer cells; assay: Western Blot experiment, Rb phosphorylation; assay type: cell-based; conditions: MDA-MB-231 cells, 16 hours incubation, FIG. 1
Method: MDA-MB-231 cells were grown in monolayer culture. […] The protein concentration was determined by the Branfor method. After being added with a loading buffer (Beyotime, # P0015L), the supernatant was boiled at 100° C. for 8 min, and the protein was separated by 8%-10% SDS-PAGE electrophoresis and then transferred to the PVDF membrane, and the membrane was blocked with 5% skimmed milk powder for 45 min, and then the cells were incubated overnight at 4° C. with primary antibody β-actin (CST, #4970), Rb (D20) Rabbit mAb (CST, #9313), Phospho-Rb(Ser780)(D59B7) Rabbit mAb (CST, #8180), and then the membrane was washed with TBST solution for 3×10 min. The cells were incubated in the dark at room temperature for 2 h with the fluorescent secondary antibody IRDye@680CW Goat (polyclonal) Anti-Rabbit 1gG (H+L), Highly Cross Adsorbed (LI-COR, #926-68071), and then the membrane was washed under the same condition above. Finally, the membrane was detected and imaged on a LI-COR Odyssey Infrared Fluorescence Scanning System, and the results are shown in FIG. 1.
CDK4/6 can make Rb protein lose the arrest on cell cycle by phosphorylating the tumor suppressor protein Rb protein. CDK4/6 inhibitor can prevent the inactivation of tumor suppressor protein Rb and thereby restore the arrest of Rb on cell cycle.

CDK2 = biological target: T1, CDK2 (Homo sapiens, UniProt P24941); assay: CDK2 activity inhibition experiment (Caliper mobility shift assay); assay type: biochemical; conditions: enzyme activity inhibition; read-out: CDK2 IC50 class
T1 construct: purchased Carna 04-103
Method: After being incubated at 28° C. for 60 minutes, 25 μl of stop solution was added to stop the reaction. Conversion rate data was read from Caliper EZ Reader II (Caliper Life Sciences). The conversion rate data was converted into inhibition rate data. […] The curve was plotted with compound concentration and inhibition rate as horizontal and vertical coordinates, and the IC50 was calculated by fitting the curve using XLFit excel add-in version 4.3.1 software. Inhibition rate %=(max-conversion rate)/(max-min)×100.

ZR-75-1 = assay: Tumor cell proliferation inhibition (CellTiter-Glo), ZR-75-1; assay type: cell-based; conditions: Homo sapiens, 72 hours, 10% fetal bovine serum, read-out: ZR-75-1 IC50 class
Method: (§1) The content of adenosine triphosphate (ATP) was determined using the CellTiter-Glo Luminescent Cell Viability Assay Kit (Promega, Madison, Wis.) to evaluate cell viability. Tumor cell lines (SW620, ZR-75-1, MDA-MB-231) were purchased from the Cell Resource Center of IBS, Fudan University, Shanghai and the American Type Culture Collection (ATCC). The cell density was determined using Scepter automated cell counter (Millipore # PHCC00000) after the cells were digested with pancreatin in cell culture dishes and resuspended in DPBS medium. The cells were diluted to a solution of 44,000 cells per ml. The cell solution of which density was adjusted was added into the cell assay plate at 90 microliters per well. The well plate was incubated in an incubator with 5% CO2 at 37° C. for 24 hours and then added with test compounds with different concentrations. The cells were incubated with the compounds in the presence of 10% fetal bovine serum for 72 hours. ATP content was assayed using the CellTiter-Glo® Luminescent Cell Viability Assay kit (see instructions of manufacturer) to assess cell growth inhibition. Briefly, 30 μl of CellTiter-Glo® reagent was added to each well, rocked for 10 minutes to induce cell lysis, and […] were detected and recorded with Fluoroskan Ascent FL (Thermo). The maximum signal value was obtained from the cells treated with dimethyl sulfoxide for 72 hours. The minimum signal value was obtained from the separate culture medium (cell number was zero). Inhibition rate %=(maximum signal value−compound signal value)/(maximum signal value−minimum signal value)×100. Data was processed using GraphPad Prism V5.0 (GraphPad Software, San Diego, Calif.) software. IC50 values were calculated by fitting S-shaped dose-response curves.

SW620 = assay: Tumor cell proliferation inhibition (CellTiter-Glo), SW620; assay type: cell-based; conditions: Homo sapiens, SW-620; 72 hours, 10% fetal bovine serum; read-out: SW620 IC50 class
Method: as §1

[3] = Pharmacokinetic (PK) experiment in rats; assay type: in vivo; conditions: male, SD, plasma, po, rat, intragastric 20 mg/kg
Method: Male SD rats weighing 300-350 g were fasted overnight prior to the experiment. The compounds to be tested were dissolved in 30% sulfobutyl ether-β-cyclodextrin (SBE-β-CD) and the rats were intragastric administration at 20 mg/kg. The blood was taken from the tails of the rats at 15 min, 30 min, and 1, 2, 3, 4, 6, 8 and 24 hours after administration, with about 0.3 ml of blood at each time point, and then the blood was placed in a centrifuge tube containing K2-EDTA, and centrifuged (2,000 g, 10 min, 4° C.) to take the plasma which was then stored in an ultra-low temperature freezer at −80° C. 50 μL, of plasma sample was mixed with 5 μL of internal standard (IS) and extracted with ethyl acetate. The residue was redissolved in acetonitrile after vacuum drying. The sample was filtered and injected into LC-MS/MS for analysis to determine the concentration of the compounds to be tested.
In the table: Tmax refers to the peak time, Cmax refers to the maximum plasma drug concentration, T1/2 is the half-life, AUClast refers to the area under the 0-24 hour time-concentration curve, AUCinf refers to the area under the 0-Inf time-concentration curve.

In the case of `CC(=O)c1c(C)c2cnc(Nc3ccc(C4CCN(CCS(C)(=O)=O)CC4)cn3)nc2n(C2CCCC2)c1=O` [Compound 1, 6-acetyl-8-cyclopentyl-5-methyl-2-((5-(1-(2-(methylsulfonyl)ethyl)piperidin-4-yl)pyridin-2-yl)amino)pyrido[2,3-d]pyrimidin-7(8H)-one], the IC50 ([1]; read-out: IC50 (nM) G1 arrest) is reported as 41.7 nM, the IC50 ([1]; read-out: IC50 (nM) S decrease) is reported as 46.1 nM and the “phosphorylation of Rb at Ser780 site” value [2] is reported as “effectively reduce”. It also gave an IC50 (CDK2) of over 500 nM, an IC50 (ZR-75-1) of 100 to 500 nM and an IC50 (SW620) of 100 to 500 nM. For the same molecule, the Cmax [3] was 1450 ng/mL, the Tmax [3] was 1.5 h and the half-life [3] was 1.5 h. It also gave an AUC(0-t) ([3]; 0-24 hour) of 4400 ng·h/mL and an AUC(0-inf) ([3]; 0-Inf) of 4540 ng·h/mL.
